The subject of data set [1] is ED-1 positive macrophages in the uterus. Kind of data set: Macrophage content of the uterus (ED-1 immunohistochemistry) in rats, Example 2. The format is in vivo, rat. To be noted: Day 5. The procedure:
(§1) Groups of female Sprague Dawley rats (n=5) were orally administered 5 or 15 mg/kg of COMPOUND 2 or 40 mg/kg COMPOUND 1 twice per day for 5 consecutive days to characterize compound tolerability. Additional groups of rats, treated with vehicle or 40 mg/kg COMPOUND 1, were terminated one hour after the a.m. dose on Days 1 and 3 for interim analysis of various parameters. Post-mortem analysis of all treated animals included standard necropsy with liver histology evaluation as well as standard hematology and serology. None of the animals were found dead or were euthanized (moribund) prior to scheduled termination. None of the treatments affected body weight or the organ:body weight ratio of selected organs (i.e., liver, thymus, spleen & uterus). […] Both compounds, at the highest dose tested, decreased the number of macrophages in the uterus (up to ˜60% for COMPOUND 2) on Day 5 however, this parameter was highly variable.
(§2) On Days 1 & 3, one hour after a.m. dose, five rats from Groups 1 and 4 were euthanized using CO2 asphyxiation and exsanguinated via cardiac puncture. Blood samples (˜500 μL) were transferred to separate ethylenediaminetetraacetic acid (EDTA) microtainers and a complete blood count (CBC) was conducted using the Advia 120 Hematology System (Bayer Diagnostics, Tarrytown, N.Y.). Additional blood samples were transferred to separate microtainers (with or without anticoagulant) and processed for biomarker (i.e., MCSF-1) and serologic (i.e., AST/ALT) analysis. The liver and thymus were weighed and discarded. The spleens were weighed and zap-frozen and the uteri (without ovaries attached) were weighed and fixed in 10% buffered formalin. The macrophage content of the uterus was determined immunohistochemically using a macrophage-specific (ED-1) antibody.
On Day 5, rats were euthanized using carbon dioxide and exsanguinated via cardiac puncture. […]
Differences between treated and control groups were analyzed statistically by ANOVA with a Dunnett's Multiple Comparison post-test. […]

For data set [2], the system named is CSF-1. Kind of data set: Plasma CSF-1 biomarker in rats, Example 2 (po bid 5 days). The format is in vivo, rat. To be noted: 5 mg/kg po bid, 5 consecutive days. As for the experimental part: as §1
On Day 0, the rats were ear tagged, randomized into the treatment groups (Groups 1 & 4: n=15, Groups 2 & 3: n=5), weighed and treated (po, bid) with either vehicle (20% HPbCD) or the test articles as delineated in Table 2 (Allocation of Treatment Groups).
as §2
On Day 5, rats were euthanized using carbon dioxide and exsanguinated via cardiac puncture. Blood samples (˜500 μL) were collected and processed as described above for CBC, biomarker analysis and serology. The liver, spleen, thymus and uterus (without ovaries attached) were isolated, weighed and fixed in buffered formalin. The right knee with femur attached was isolated, trimmed and fixed in formalin. The left femur was isolated for determination of bone marrow cell counts. Liver histopathology was also conducted.
Differences between treated and control groups were analyzed statistically by ANOVA with a Dunnett's Multiple Comparison post-test. (p value; *:<0.05, **:<0.01).

The nature of data set [3]: Tolerability in rats, Example 2. As to conditions: 5 or 15 mg/kg COMPOUND 2 or 40 mg/kg COMPOUND 1, po bid, 5 consecutive days. The class given is in vivo. The procedure: as §1, with “variable. […]” for “variable.”
On Days 1 & 3, one hour after a.m. dose, five rats from Groups 1 and 4 were euthanized using CO2 asphyxiation and exsanguinated via cardiac puncture. […] The macrophage content of the uterus was determined immunohistochemically using a macrophage-specific (ED-1) antibody. […]

In data set [4] the test system is CSF-1. Kind of data set: Plasma CSF-1 in rats dosed 4 days, Examples 3 and 4 (mouse CSF-1 ELISA). The format is in vivo, rat. To be noted: for CSF-1 levels elevated: vs vehicle; for CSF-1, pg/ml, Mean (SEM) / Plasma CSF-1, pg/ml, Mean: group mean; for CSF-1, pg/ml, Mean (SEM) / CSF-1, pg/ml (plasma): vehicle mean 127; for CSF-1, pg/ml (plasma) / Plasma CSF-1, pg/ml: individual animals; for Plasma CSF-1, pg/ml, Mean / Plasma CSF-1, pg/ml: vehicle mean 124. The procedure:
(§3) Pharmacodynamic activity in rats was determined to identify appropriate doses for efficacy studies. Circulating CSF-1 is cleared by sinusoidal macrophages when bound and internalized by FMS in a process that is partly dependent on FMS kinase activity. CSF-1 levels rise when FMS is inhibited, or when FMS inhibition reduces the number/function of macrophages. Uterine macrophages are short-lived and FMS-dependent. Quantitation of uterine macrophage density and plasma CSF-1 levels thereby provided pharmacodynamic endpoints measurable in rats following 4 days of dosing.
(§4) […] On the fifth day, a final dose was given and the animals were sacrificed 2 hrs later. Rats were euthanized using CO2 asphyxiation and exsanguinated via cardiac puncture. An aliquot of blood ([…]) was transferred to an EDTA tube and processed for plasma and for determination of plasma compound and CSF-1 biomarker levels.
Background: In an ELISA, binding on a coated surface is turned into a signal by an enzyme label.

A short description of data set [5]: Plasma compound levels in rats dosed 4 days, Examples 3 and 4. The format is in vivo, rat. As to conditions: for concentration at 2 h: rat, plasma.
Assay in data set [6]: as above
The format is in vivo, rat. As to conditions: 2 hrs after final dose, individual animals; for concentration at 2 h: female, Sprague Dawley, rat, plasma, oral. The procedure: Method: Female Sprague Dawley Rats (150 to 200 g BW) from Charles River were administered vehicle or COMPOUND 3 at 10 and 40 mg/kg p.o. bid for 4 days. On the fifth day, a final dose was given and the animals were sacrificed 2 hrs later. Rats were euthanized using CO2 asphyxiation and exsanguinated via cardiac puncture. An aliquot of blood ([…]) was transferred to an EDTA tube and processed for plasma and for determination of plasma compound and CSF-1 biomarker levels.

The next data set deals with uterine macrophages. Kind of data set: Uterine ED1 stained area (uterine macrophage density) in rats dosed 4 days, Examples 3 and 4. The class given is in vivo, rat. To be noted: for Uterine macrophages depleted: vs vehicle; for Uterine ED1 area/HPF, Mean (SEM) / Uterine ED1 area/HPF, Mean: group mean; for Uterine ED1 area/HPF: individual animals. As for the experimental part: as §3, §4
Spleens, livers and uteri (without ovaries) were isolated and weighed and uteri were fixed in formalin. Uteri sections were stained for ED1 and ED-1 stained area (arbitrary units) at 200× magnification was determined using Image-Pro Plus software.

Where [7] appears, read: 10 mg/kg p.o. bid 4 days, vehicle mean 9808.
The mark [8] stands for this setting: 40 mg/kg p.o. bid 4 days, vehicle mean 9808.
Setting [9] is: 10 mpk, dosed 4 days, vehicle mean 2057.
Setting [10] is: 20 mpk, dosed 4 days, vehicle mean 2057.
The mark [11] stands for this setting: 50 mpk, dosed 4 days, vehicle mean 2057.

“And” between values parts separate entries of the source, which are not always exact repeats. Equal values may be shown once. Read-outs that look alike come from different tables or passages of the source. Marks after values point to notes of the source that are not given here.

Here are results for three compounds from patent US20090148883A1, “BIOMARKER FOR ASSESSING RESPONSE TO FMS TREATMENT” (priority 2007, published 2009).

On to `Cc1ncc(-c2c(C3=CCCCC3)c3cc(C#N)ccc3[nH]c2=O)[nH]1` [COMPOUND 2], for which the “Effect on macrophage content of the uterus” value in data set [1] (highest dose tested (COMPOUND 2 15 mg/kg, COMPOUND 1 40 mg/kg po bid), highly variable) is “significant effect”. For the same compound, the “Decrease in number of ED-1 positive macrophages per field in the uterus” value in data set [1] (up to, dose dependent (5 and 15 mg/kg po bid)) is given as about 60%. Besides, the “Effect on plasma concentrations of CSF-1” value in the data set with CSF-1 [2] is recorded as “failed to significantly affect plasma concentrations of CSF-1”. The “Effect on appearance, behavior, body weight or organ:body weight ratio (liver, spleen, thymus)” value in data set [3] is given as “did not have an observable effect”.

Turning to `CONC(=O)c1cn(-c2ccc3c(c2)CCC3)c2nc(Nc3ccc(C4CCN(C)CC4)cc3)ncc2c1=O` [COMPOUND 3], the figures for the CSF-1 levels elevated in the data set with CSF-1 [4] (10 mg/kg p.o. bid 4 days) and in the data set with CSF-1 [4] (40 mg/kg p.o. bid 4 days) were 4.5 fold and 5.5 fold, respectively. Besides, the “CSF-1, pg/ml, Mean (SEM)” value with CSF-1 [4] (10 mg/kg p.o. bid 4 days) was determined as 570 pg/mL; with CSF-1 [4] (40 mg/kg p.o. bid 4 days) it was 698 pg/mL. For the same compound, the “CSF-1, pg/ml (plasma)” value in the data set on CSF-1 [4] (10 mg/kg p.o. bid 4 days) is 651 pg/mL and 482 pg/mL and 577 pg/mL; in the data set with CSF-1 [4] (40 mg/kg p.o. bid 4 days), 548 pg/mL and 746 pg/mL and 801 pg/mL. Besides, the concentration at 2 h was determined as 2540 ng/mL in data set [5] (female, Sprague Dawley, oral, 10 mg/kg, 10 mg/kg p.o. bid 4 days, 2 hrs after final dose, group mean, read-out: Compound, ng/ml, Mean (SEM)); 5370 ng/mL in data set [5] (female, Sprague Dawley, oral, 40 mg/kg, 40 mg/kg p.o. bid 4 days, 2 hrs after final dose, group mean, read-out: Compound, ng/ml, Mean (SEM)); 2730 ng/mL in data set [6] (10 mg/kg, 10 mg/kg p.o. bid 4 days); 5320 ng/mL in data set [6] (40 mg/kg, 40 mg/kg p.o. bid 4 days). For the same compound, the “Compound, ng/ml (plasma)” value was 2080 ng/mL and 2800 ng/mL in data set [6] (10 mg/kg p.o. bid 4 days); 5060 ng/mL and 5730 ng/mL in data set [6] (40 mg/kg p.o. bid 4 days). Further, the figures for the Uterine macrophages depleted in the data set on uterine macrophages (10 mg/kg p.o. bid 4 days) and in the data set with uterine macrophages (40 mg/kg p.o. bid 4 days) were 51% and 81%, respectively. In addition, the “Uterine ED1 area/HPF, Mean (SEM)” value with uterine macrophages (setting [7]) is reported as 4855 arbitrary units; in the data set with uterine macrophages (setting [8]), 1836 arbitrary units. In addition, the “Uterine ED1 area/HPF” value in the data set with uterine macrophages (setting [7]) was 4919 arbitrary units and 7609 arbitrary units and 2037 arbitrary units; with uterine macrophages (setting [8]), 929 arbitrary units and 1721 arbitrary units and 2858 arbitrary units. Further, the “Morphology of uterine macrophages (ED-1 staining)” value with uterine macrophages (40 mg/kg p.o. bid 4 days) is recorded as “did not have the normal reticulated morphology”.

On to `CC1(C)CC=C(c2nc(C3CC(C)(C)OC(C)(C)C3)ccc2NC(=O)c2ncc(C#N)[nH]2)CC1` [COMPOUND 4], for which the CSF-1 levels elevated in the data set on CSF-1 [4] (10 mpk, dosed 4 days) is given as 28%; in the data set with CSF-1 [4] (20 mpk, dosed 4 days), 79%; in the data set on CSF-1 [4] (50 mpk, dosed 4 days), 363%. The “Plasma CSF-1, pg/ml, Mean” value with CSF-1 [4] (10 mpk, dosed 4 days, p < 0.05 vs. Vehicle) is reported as 159* pg/ml; with CSF-1 [4] (20 mpk, dosed 4 days, p < 0.005 vs. Vehicle) it was 211** pg/ml; in the data set on CSF-1 [4] (50 mpk, dosed 4 days, p < 0.005 vs. Vehicle) it was 574** pg/ml. In addition, the “Plasma CSF-1, pg/ml” value is 152 pg/mL and 165 pg/mL and 139 pg/mL and 157 pg/mL and 184 pg/mL with CSF-1 [4] (10 mpk, dosed 4 days); 211 pg/mL and 163 pg/mL and 196 pg/mL and 238 pg/mL and 249 pg/mL in the data set with CSF-1 [4] (20 mpk, dosed 4 days); 540 pg/mL and 696 pg/mL and 506 pg/mL and 585 pg/mL and 541 pg/mL in the data set with CSF-1 [4] (50 mpk, dosed 4 days). Moreover, the “Dose with a threshold level of activity for CSF-1 elevation and uterine macrophage depletion” value in the data set on CSF-1 [4] (rats dosed 4 days) came to 10 mg/kg. Moreover, the “Plasma compound, ng/ml, Mean” value in data set [5] (10 mpk, dosed 4 days, 2 hours after last dose, group mean) is recorded as 1414 (186) ng/ml; in data set [5] (20 mpk, dosed 4 days, 2 hours after last dose, group mean) it was 2636 (172) ng/ml; in data set [5] (50 mpk, dosed 4 days, 2 hours after last dose, group mean), 6612 (881) ng/ml. Further, the “Plasma compound” value in data set [5] (10 mpk, dosed 4 days, 2 hours after last dose, individual animals) is 968 ng/mL and 1560 ng/mL and 1790 ng/mL and 1680 ng/mL; in data set [5] (20 mpk, dosed 4 days, 2 hours after last dose, individual animals), 2670 ng/mL and 2320 ng/mL and 2470 ng/mL and 3210 ng/mL; in data set [5] (50 mpk, dosed 4 days, 2 hours after last dose, individual animals), 6090 ng/mL and 4800 ng/mL and 9390 ng/mL and 7110 ng/mL. For the same compound, the concentration at 2 h in data set [5] (10 mpk, dosed 4 days, 2 hours after last dose, group mean, read-out: Plasma compound, ng/ml, Mean) stood at 1410 ng/mL; in data set [5] (10 mpk, dosed 4 days, 2 hours after last dose, individual animals, read-out: Plasma compound), 1070 ng/mL; in data set [5] (20 mpk, dosed 4 days, 2 hours after last dose, individual animals, read-out: Plasma compound), 2510 ng/mL; in data set [5] (50 mpk, dosed 4 days, 2 hours after last dose, group mean, read-out: Plasma compound, ng/ml, Mean), 6610 ng/mL; in data set [5] (50 mpk, dosed 4 days, 2 hours after last dose, individual animals, read-out: Plasma compound), 5670 ng/mL; in data set [5] (dosed 4 days, 2 hours after last dose, group mean, read-out: Plasma compound, ng/ml, Mean), 2640 ng/mL. Further, the Uterine macrophages depleted is listed as 27% in the data set with uterine macrophages (10 mpk, dosed 4 days); 28% in the data set on uterine macrophages (20 mpk, dosed 4 days); 44% in the data set on uterine macrophages (50 mpk, dosed 4 days). Moreover, the “Uterine ED1 area/HPF, Mean” value was 1501 arbitrary units in the data set on uterine macrophages (setting [9]), 1476 arbitrary units in the data set on uterine macrophages (setting [10]) and 1149 arbitrary units with uterine macrophages (setting [11]). Besides, the “Uterine ED1 area/HPF” value in the data set with uterine macrophages (setting [9]) is 1003 arbitrary units and 1233 arbitrary units and 1174 arbitrary units and 1021 arbitrary units and 3075 arbitrary units; in the data set with uterine macrophages (setting [10]), 1419 arbitrary units and 1995 arbitrary units and 1164 arbitrary units and 1560 arbitrary units and 1244 arbitrary units; with uterine macrophages (setting [11]) it was 681 arbitrary units and 1431 arbitrary units and 2955 arbitrary units and 585 arbitrary units and 94 arbitrary units.
